From patent US20100317581A1, “Ipamorelin Diacetate Injection and Infusion Solutions” (Helsinn Therapeutics (U.S.), Inc., priority 2009, published 2010)
Converted amounts (≈) assume the structure as drawn. Where a name gives a salt, the structure may show the parent alone. Read-outs that look alike come from different tables or passages of the source. Where a SMILES comes first, the peptide text is derived from it. [ ]: non-standard residue; d: D form. d2Nal = N[C@H](Cc1ccc2ccccc2c1)C(=O)O; Aib = CC(C)(N)C(=O)O

Test: Solubility as a function of pH / solubility in pure water
Assay type: physicochemical
Experimental: The solubility of ipamorelin free base at different pH values is shown graphically in FIG. 1. At pH values less than approximately 10, the drug is very soluble in aqueous media (>100 mg/ml).
This dramatic change in solubility around pH 10 is reflected in the solubilities of ipamorelin free base and its diacetate salt in pure water. The diacetate salt dissolves readily: it is capable of producing solutions greater than 100 mg/ml, with a final pH of about 7.5. The free base is much less soluble; only about 1.5 mg/ml was measured in a saturated solution, pH=9.83. However, solutions of much higher concentration can be achieved by simply adjusting the pH to around neutrality, using a solution of HCl or a similar acid.

Row | solubility (aqueous media, pH values less than approximately 10, read-out: solubility in aqueous media) | solubility (pure water, saturated solution, pH=9.83, read-out: solubility in pure water (saturated solution)) | solubility (pH 7.5, pure water, final pH of about 7.5, read-out: solubility in pure water) | Compound
1 | > 100 mg/mL | ~1.5 mg/mL (≈ 2110 µM) |  | CC(C)(N)C(=O)N[C@@H](Cc1c[nH]cn1)C(=O)N[C@H](Cc1ccc2ccccc2c1)C(=O)N[C@H](Cc1ccccc1)C(=O)N[C@@H](CCCCN)C(N)=O [ipamorelin free base, α-Methylalanine-L-histidine-D-β-(2-naphthyl)-alanine-D-phenylalanine-L-lysinamide] (H-[Aib]H[d2Nal][dF]K-NH2)
2 |  |  | > 100 mg/mL | CC(C)(N)C(=O)N[C@@H](Cc1c[nH]cn1)C(=O)N[C@H](Cc1ccc2ccccc2c1)C(=O)N[C@H](Cc1ccccc1)C(=O)N[C@@H](CCCCN)C(N)=O [diacetate salt] (H-[Aib]H[d2Nal][dF]K-NH2)
